Our source for the CL renal values is ChEMBL document CHEMBL1151930, “Physicochemical determinants of human renal clearance” (J Med Chem, 2009).

A short description of this series: clinical. The following applies: human, in vivo.
For the compound `CN1Cc2c(N)cccc2C(c2ccccc2)C1` (stereo unspecified) [NOMIFENSINE], the CL renal turned out to be 12.5 mL/min/kg.

Compound `CC1(C)C[C@@H]1C(=O)N/C(=C\CCCCSC[C@H](N)C(=O)O)C(=O)O` [CILASTATIN] showed a CL renal of 0.41 mL/min/kg.

In the case of `CN(C)[C@@H]1C(O)=C(C(N)=O)C(=O)[C@@]2(O)C(O)=C3C(=O)c4c(O)cccc4[C@@](C)(O)[C@H]3C[C@@H]12` [TETRACYCLINE], the CL renal is 0.9 mL/min/kg.

`CC(C)(C)NC(=O)[C@H]1CC[C@H]2[C@@H]3CC[C@H]4NC(=O)C=C[C@]4(C)[C@H]3CC[C@]12C` [FINASTERIDE]: the CL renal is 0.02 mL/min/kg.

As to `CC1=C(C(=O)O)N2C(=O)[C@@H](NC(=O)[C@H](N)C3=CCC=CC3)[C@H]2SC1` [CEPHRADINE], the CL renal was found to be 3.14 mL/min/kg.

In the case of `CC[C@H]1OC(=O)[C@H](C)[C@@H](O[C@H]2C[C@@](C)(OC)[C@@H](O)[C@H](C)O2)[C@H](C)[C@@H](O[C@@H]2O[C@H](C)C[C@H](N(C)C)[C@H]2O)[C@](C)(O)C[C@@H](C)C(=O)[C@H](C)[C@@H](O)[C@]1(C)O` [ERYTHROMYCIN], the CL renal was 0.34 mL/min/kg.

Regarding `CCCCN1CCCCC1C(=O)Nc1c(C)cccc1C` (stereo unspecified) [BUPIVACAINE], the CL renal is 0.09 mL/min/kg.

The compound `O=C(c1ccccc1)c1ccc2n1CCC2C(=O)O` (stereo unspecified) [KETOROLAC] returned a CL renal of 0.2 mL/min/kg.

In turn, `CC(CC(c1ccccc1)c1ccccc1)NC(C)(C)C` (stereo unspecified) [TERODILINE] registered a CL renal of 0.14 mL/min/kg.

Compound `CS(=O)(=O)OCCCCOS(C)(=O)=O` [BUSULFAN] displayed a CL renal of 0.2 mL/min/kg.

`C[C@@H]([C@@H](O)c1ccc(O)cc1)N1CCC(O)(c2ccccc2)CC1` [TRAXOPRODIL] gave a CL renal of 1.92 mL/min/kg.

Turning to `CC1(C)S[C@@H]2[C@H](NC(=O)[C@H](N)c3ccccc3)C(=O)N2[C@H]1C(=O)O` [AMPICILLIN], the CL renal was determined as 1.2 mL/min/kg.

As for `Nc1ncn([C@H]2C[C@H](O)[C@@H](CO)O2)c(=O)n1` [DECITABINE], the CL renal is 1.3 mL/min/kg.

`C=CCc1ccccc1OCC(O)CNC(C)C` (stereo unspecified) [ALPRENOLOL] registered a CL renal of 0.6 mL/min/kg.

Take `CN1C(=O)NC(=O)C(C)(C2=CCCCC2)C1=O` (stereo unspecified) [HEXOBARBITAL]: the CL renal was found to be 0.02 mL/min/kg.

The compound `CC(CCc1ccccc1)NCC(O)c1ccc(O)c(C(N)=O)c1` (stereo unspecified) [LABETALOL] had a CL renal of 0.92 mL/min/kg.

`C[C@@H](O)[C@H]1C(=O)N2C(C(=O)O)=C(S[C@H]3C[C@@H](C(=O)N4CC[C@H](NC(=O)CNC(=N)N)C4)N(C)C3)[C@H](C)[C@H]12` [TOMOPENEM] gave a CL renal of 1.14 mL/min/kg.

Compound `CCCCC(=O)N(Cc1ccc(-c2ccccc2-c2nnn[nH]2)cc1)[C@H](C(=O)O)C(C)C` displayed a CL renal of 0.14 mL/min/kg.

For the compound `O=c1[nH]cnc2c1ncn2[C@H]1CC[C@@H](CO)O1` [DIDANOSINE], the CL renal was 6.8 mL/min/kg.

Take `COc1nc(C)nc(Cl)c1N=C1NCCN1` [MOXONIDINE]: the CL renal was 7.5 mL/min/kg.

With `NNc1nncc2ccccc12` [HYDRALAZINE], the CL renal was found to be 10.8 mL/min/kg.

Regarding `N[C@@H]1CN(c2c(F)cc3c(=O)c(C(=O)O)cn([C@@H]4C[C@@H]4F)c3c2Cl)CC12CC2` [SITAFLOXACIN ANHYDROUS], the CL renal came to 2.8 mL/min/kg.

The compound `C[C@H]1C[C@H]2[C@@H]3CCC4=CC(=O)C=C[C@]4(C)[C@@]3(F)[C@@H](O)C[C@]2(C)[C@@]1(O)C(=O)CO` [BETAMETHASONE] returned a CL renal of 0.14 mL/min/kg.

As for `Nc1cc(-c2ccncc2)c[nH]c1=O` [INAMRINONE], the CL renal amounted to 3.1 mL/min/kg.

`CO/N=C(\C(=O)N[C@@H]1C(=O)N2C(C(=O)O)=C(COC(N)=O)CS[C@H]12)c1ccco1` [CEFUROXIME] registered a CL renal of 2.11 mL/min/kg.

`N[C@@H](Cc1ccc(O)c(O)c1)C(=O)O` [LEVODOPA]: the CL renal turned out to be 0.23 mL/min/kg.

As for `CN(Cc1cnc2nc(N)nc(N)c2n1)c1ccc(C(=O)N[C@@H](CCC(=O)O)C(=O)O)cc1` [METHOTREXATE], the CL renal turned out to be 1.7 mL/min/kg.

`CCCN(CCC)S(=O)(=O)c1ccc(C(=O)O)cc1` [PROBENECID] returned a CL renal of 0.03 mL/min/kg.

Take `CN1C2CCCC1CC(NC(=O)c1nn(C)c3ccccc13)C2` (stereo unspecified) [GRANISETRON]: the CL renal came out at 1 mL/min/kg.

As to `CN1CCN(C(=O)OC2c3nccnc3C(=O)N2c2ccc(Cl)cn2)CC1` (stereo unspecified) [ZOPICLONE], the CL renal was found to be 0.1 mL/min/kg.

As for `Cc1cccc(Nc2ccncc2S(=O)(=O)NC(=O)NC(C)C)c1` [TORSEMIDE], the CL renal was found to be 0.13 mL/min/kg.

In turn, `CCCCCCCCCC(=O)N[C@@H](Cc1c[nH]c2ccccc12)C(=O)N[C@H](CC(N)=O)C(=O)N[C@@H](CC(=O)O)C(=O)N[C@@H]1C(=O)NCC(=O)N[C@@H](CCCN)C(=O)N[C@@H](CC(=O)O)C(=O)N[C@H](C)C(=O)N[C@@H](CC(=O)O)C(=O)NCC(=O)N[C@H](CO)C(=O)N[C@@H]([C@H](C)CC(=O)O)C(=O)N[C@@H](CC(=O)c2ccccc2N)C(=O)O[C@@H]1C` yielded a CL renal of 0.09 mL/min/kg.

`COc1cccc(C2(O)CCCCC2CN(C)C)c1` (stereo unspecified) [TRAMADOL] gave a CL renal of 0.98 mL/min/kg.

`COC(=O)[C@H]1[C@@H](OC(=O)c2ccccc2)C[C@@H]2CC[C@H]1N2C` [COCAINE] had a CL renal of 0.4 mL/min/kg.

For the compound `COc1c(N2CCNC(C)C2)c(F)cc2c(=O)c(C(=O)O)cn(C3CC3)c12` (stereo unspecified) [GATIFLOXACIN], the CL renal was determined as 2.3 mL/min/kg.

With `CN(C)CCC(c1ccc(Cl)cc1)c1ccccn1` (stereo unspecified) [CHLORPHENIRAMINE], the CL renal amounted to 0.43 mL/min/kg.

As for `CC1(C)S[C@@H]2[C@H](NC(=O)Cc3ccccc3)C(=O)N2[C@H]1C(=O)O` [PENICILLIN G], the CL renal is 5 mL/min/kg.

With `C[C@H](N[C@@H](CCc1ccccc1)C(=O)O)C(=O)N1CCC[C@H]1C(=O)O` [ENALAPRILAT ANHYDROUS], the CL renal came to 1.6 mL/min/kg.

`CC1(C)S[C@@H]2[C@H](NC(=O)COc3ccccc3)C(=O)N2[C@H]1C(=O)O` [PENICILLIN V] showed a CL renal of 1.74 mL/min/kg.

As for `COc1cc2nc(N3CCN(C(=O)C4CCCO4)CC3)nc(N)c2cc1OC` (stereo unspecified) [TERAZOSIN], the CL renal stood at 0.13 mL/min/kg.

`CCCc1cc(=O)[nH]c(=S)[nH]1` [PROPYLTHIOURACIL] gave a CL renal of 0.04 mL/min/kg.

In turn, `COc1ccccc1OCCNCC(O)COc1cccc2[nH]c3ccccc3c12` (stereo unspecified) [CARVEDILOL] had a CL renal of 0.1 mL/min/kg.

For the compound `CSc1ccc(C(=O)c2[nH]c(=O)[nH]c2C)cc1` [ENOXIMONE], the CL renal was determined as 0.1 mL/min/kg.

In turn, `CC(C)(C)NC[C@H](O)COc1nsnc1N1CCOCC1` [TIMOLOL] showed a CL renal of 1.4 mL/min/kg.

On to `CCC1(c2ccccc2)C(=O)NC(=O)NC1=O` [PHENOBARBITAL], for which the CL renal was 0.02 mL/min/kg.

Regarding `COC(=O)Nc1nc2ccc(C(=O)c3ccccc3)cc2[nH]1` [MEBENDAZOLE], the CL renal was found to be 0.17 mL/min/kg.

In the case of `CN(C)CCC=C1c2ccccc2COc2ccccc21` [DOXEPIN], the CL renal turned out to be 0.12 mL/min/kg.

`Cc1cccc(C)c1NC(=O)C(C)N` (stereo unspecified) [TOCAINIDE] had a CL renal of 0.8 mL/min/kg.

On to `CC(C)(C)NC(=O)[C@@H]1CN(Cc2cccnc2)CCN1C[C@@H](O)C[C@@H](Cc1ccccc1)C(=O)N[C@H]1c2ccccc2C[C@H]1O.O`, for which the CL renal worked out at 1.53 mL/min/kg.

With `CCC(C)(C)NCC(O)COc1ccccc1C(=O)CCc1ccccc1` (stereo unspecified) [DIPRAFENONE], the CL renal was found to be 0.04 mL/min/kg.

For the compound `Nc1nc2c(ncn2CCC(CO)CO)c(=O)[nH]1` [PENCICLOVIR], the CL renal came to 6.7 mL/min/kg.

Compound `CN(C)CCCN1c2ccccc2CCc2cc(O)ccc21` [2-HYDROXYIMIPRAMINE] returned a CL renal of 0.3 mL/min/kg.

`CCN(CC)CCNC(=O)c1ccc(NS(C)(=O)=O)cc1` [SEMATILIDE]: the CL renal was 3.5 mL/min/kg.

Regarding `Cc1onc(-c2ccccc2)c1C(=O)N[C@@H]1C(=O)N2[C@@H]1SC(C)(C)[C@@H]2C(=O)O` [OXACILLIN], the CL renal was found to be 2.6 mL/min/kg.

With `CC(=O)NC[C@H]1CN(c2ccc(N3CCOCC3)c(F)c2)C(=O)O1` [LINEZOLID], the CL renal turned out to be 0.6 mL/min/kg.

Compound `COc1ccc2[nH]c([S+]([O-])Cc3ncc(C)c(OC)c3C)nc2c1` (stereo unspecified) [OMEPRAZOLE] displayed a CL renal of 0.08 mL/min/kg.

The compound `C[C@H]1c2cccc(O)c2C(=O)C2=C(O)[C@]3(O)C(=O)C(C(N)=O)=C(O)[C@@H](N(C)C)[C@@H]3[C@@H](O)[C@@H]21.O` [DOXYCYCLINE] came in with a CL renal of 0.19 mL/min/kg.

Regarding `C[C@H](Cn1cnc2c(N)ncnc21)OCP(=O)(O)O` [TENOFOVIR ANHYDROUS], the CL renal is 2.7 mL/min/kg.

For the compound `COCC(=O)Nc1c(I)c(C(=O)NCC(O)CO)c(I)c(C(=O)N(C)CC(O)CO)c1I` (stereo unspecified) [IOPROMIDE], the CL renal worked out at 1.37 mL/min/kg.

For `CC1=C(C(=O)O)N2C(=O)[C@@H](NC(=O)[C@H](N)c3ccc(O)cc3)[C@H]2SC1` [CEFADROXIL], the CL renal was determined as 2.33 mL/min/kg.

Compound `C[C@H](N[C@@H](CCc1ccccc1)C(=O)O)C(=O)N1Cc2ccccc2C[C@H]1C(=O)O` returned a CL renal of 0.9 mL/min/kg.

`CCOC(=O)c1ncn2c1CN(C)C(=O)c1cc(F)ccc1-2` [FLUMAZENIL]: the CL renal stood at 0.03 mL/min/kg.

Compound `Nc1ccc(S(=O)(=O)Nc2ncccn2)cc1` [SULFADIAZINE] returned a CL renal of 0.34 mL/min/kg.

`O=C(O)Cc1ccccc1Nc1c(Cl)cccc1Cl` [DICLOFENAC] came in with a CL renal of 0.04 mL/min/kg.

Take `CCN(CC)CCNC(=O)c1cc(Br)c(N)cc1OC` [BROMOPRIDE]: the CL renal stood at 1.4 mL/min/kg.

Compound `CO/N=C(\C(=O)N[C@@H]1C(=O)N2C(C(=O)O)=CCS[C@H]12)c1csc(N)n1` [CEFTIZOXIME] came in with a CL renal of 1.68 mL/min/kg.

`C[C@]12C=CC(=O)C=C1CC[C@@H]1[C@@H]2[C@@H](O)C[C@@]2(C)[C@H]1CC[C@]2(O)C(=O)CO` [PREDNISOLONE] gave a CL renal of 0.6 mL/min/kg.

`NC(=O)c1ncn([C@@H]2O[C@H](CO)[C@@H](O)[C@H]2O)n1` [RIBAVIRIN] returned a CL renal of 1.7 mL/min/kg.

As for `NS(=O)(=O)c1cc(C(=O)O)cc(N2CCCC2)c1Oc1ccccc1` [PIRETANIDE], the CL renal worked out at 1.05 mL/min/kg.

`O=C(O)[C@H]1/C(=C/CO)O[C@@H]2CC(=O)N21` [CLAVULANIC ACID] came in with a CL renal of 1.33 mL/min/kg.

`Nc1c2c(nc3ccccc13)CCCC2` [TACRINE] displayed a CL renal of 1.68 mL/min/kg.

`O=C1CN=C(c2ccccn2)c2cc(Br)ccc2N1` [BROMAZEPAM] had a CL renal of 0.26 mL/min/kg.

In the case of `Cc1nnc2n1-c1ccc(Cl)cc1C(c1ccccc1)=NC2` [ALPRAZOLAM], the CL renal was determined as 0.15 mL/min/kg.

The compound `CCN(CC)CCNC(=O)c1cc(Cl)c(N)cc1OC` [METOCLOPRAMIDE] showed a CL renal of 1.14 mL/min/kg.

In the case of `COc1cc([C@@H]2c3cc4c(cc3[C@@H](O[C@@H]3O[C@@H]5CO[C@@H](c6cccs6)O[C@H]5[C@H](O)[C@H]3O)[C@H]3COC(=O)[C@H]23)OCO4)cc(OC)c1O` [TENIPOSIDE], the CL renal was 0.02 mL/min/kg.

`Cc1cccc(N2CC(CO)OC2=O)c1` (stereo unspecified) [TOLOXATONE] showed a CL renal of 0.11 mL/min/kg.
